Calls of active or inactive are those of the source.
What was measured:
[1] = target: Muscarinic acetylcholine receptor M1 (Rattus norvegicus, UniProt P08482); test: concentration-dependent potentiation of ACh at M1 – cell-based, calcium mobilization, CHO-K1, ACh EC20, dose response (AID 2425); format: functional
[2] = Luminescent dose response cell-based high throughput screening assay for inhibitors of the Janus kinase 2 mutant JAK2V617F. [Related pubchem assays: 1446 (Primary screen.), 1521 (Confirmation assay.), 1486 (Counter screen.)]; format: functional
[3] = Trypanosoma cruzi growth suppression in host cells – NIH3T3 host cells, beta-gal luminescence, confirmation (AID 2044); format: functional, cell-based;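 further: intracellular parasites grown in NIH/3T3 mouse fibroblasts as host cells; luminescent beta-galactosidase reporter signal from transgenic T. cruzi replicating inside host cells; inhibitors lower the luminescence signal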
[4] = NIH3T3 cell viability loss – ATP luminescence, mouse fibroblasts, counter-screen, dose response (AID 2010); format: functional, cell-based;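 further: cells exposed to compound for about 90 hours before reading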
HEK293 = test: EBV LMP1 TES2 canonical NF-kB signalling blockers – cell-based, HEK293, luciferase, cherry-pick, dose response (AID 588343); format: functional; settings: Homo sapiens
[5] = target: ATP-binding cassette sub-family B member 6 (Homo sapiens, UniProt Q9NP58); test: concentration-dependent ABCB6 porphyrin transport blockade – K562-ABCB6 cells, flow cytometry, cherry pick 1, dose response (AID 623955); format: functional; settings: read-out: EC50_MICROM
Sequence of ATP-binding cassette sub-family B member 6 (Q9NP58 whole entry): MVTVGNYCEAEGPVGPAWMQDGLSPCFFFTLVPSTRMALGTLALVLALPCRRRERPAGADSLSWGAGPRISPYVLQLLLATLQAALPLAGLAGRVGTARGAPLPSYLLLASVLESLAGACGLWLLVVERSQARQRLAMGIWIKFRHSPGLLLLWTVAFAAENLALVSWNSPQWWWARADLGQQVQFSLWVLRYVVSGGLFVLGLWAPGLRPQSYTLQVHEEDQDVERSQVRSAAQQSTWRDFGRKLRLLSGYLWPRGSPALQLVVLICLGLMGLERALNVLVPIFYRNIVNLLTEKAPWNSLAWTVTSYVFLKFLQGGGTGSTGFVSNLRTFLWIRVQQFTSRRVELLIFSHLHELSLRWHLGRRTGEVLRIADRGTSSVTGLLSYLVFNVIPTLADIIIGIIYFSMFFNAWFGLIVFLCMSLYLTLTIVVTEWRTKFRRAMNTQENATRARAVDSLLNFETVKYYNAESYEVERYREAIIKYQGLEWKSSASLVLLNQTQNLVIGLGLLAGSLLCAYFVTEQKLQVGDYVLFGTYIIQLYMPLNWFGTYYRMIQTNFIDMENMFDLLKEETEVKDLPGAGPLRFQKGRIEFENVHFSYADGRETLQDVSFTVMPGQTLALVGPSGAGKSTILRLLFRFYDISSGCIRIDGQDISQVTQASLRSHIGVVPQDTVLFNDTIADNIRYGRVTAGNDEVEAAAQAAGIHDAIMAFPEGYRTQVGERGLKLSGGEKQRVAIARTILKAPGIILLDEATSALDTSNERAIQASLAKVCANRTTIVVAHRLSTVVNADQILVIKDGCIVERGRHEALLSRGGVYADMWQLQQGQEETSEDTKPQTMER

[6] = target: Solute carrier family 12 member 2/member 5 (Homo sapiens, UniProt P55011+Q9H2X9); test: KCC2 and NKCC1 inhibition by rubidium flux, cell-based, NKCC1 counter-screen (AID 1734); format: functional, HEK293
[7] = A High Throughput Confirmatory Assay used to Identify Novel Compounds that Inhibit Mycobacterium Tuberculosis in the absence of Glycerol.; format: functional
[8] = target: Bifunctional protein GlmU (Mycobacterium tuberculosis, UniProt P9WMN3); test: Inhibitors of Mycobacterial Glucosamine-1-phosphate acetyl transferase (GlmU). Secondary screen.; set-up: species or system Mycobacterium tuberculosis H37Rv
Sequence of Bifunctional protein GlmU (P9WMN3 whole entry): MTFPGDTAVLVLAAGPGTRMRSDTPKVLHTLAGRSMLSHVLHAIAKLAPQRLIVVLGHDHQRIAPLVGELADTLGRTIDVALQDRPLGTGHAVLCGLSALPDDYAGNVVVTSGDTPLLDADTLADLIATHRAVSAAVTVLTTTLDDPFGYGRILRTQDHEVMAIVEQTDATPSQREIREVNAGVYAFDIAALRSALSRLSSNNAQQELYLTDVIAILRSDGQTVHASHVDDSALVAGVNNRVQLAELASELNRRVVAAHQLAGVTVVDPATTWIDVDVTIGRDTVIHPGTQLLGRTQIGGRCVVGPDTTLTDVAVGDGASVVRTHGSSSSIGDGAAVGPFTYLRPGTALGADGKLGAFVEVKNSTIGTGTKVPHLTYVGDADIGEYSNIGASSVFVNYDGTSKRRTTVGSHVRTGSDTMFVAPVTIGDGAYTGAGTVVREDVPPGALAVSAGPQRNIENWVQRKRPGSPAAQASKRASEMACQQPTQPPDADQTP

Galanin receptor type 2 = Galanin receptor type 2 (Homo sapiens, UniProt O43603); test: Dose Response cell-based high-throughput screening assay to identify antagonists of galanin receptor 2 (GALR2). [Related pubchem assays: 828, 866 ]; format: functional
Sequence of Galanin receptor type 2 (O43603 whole entry): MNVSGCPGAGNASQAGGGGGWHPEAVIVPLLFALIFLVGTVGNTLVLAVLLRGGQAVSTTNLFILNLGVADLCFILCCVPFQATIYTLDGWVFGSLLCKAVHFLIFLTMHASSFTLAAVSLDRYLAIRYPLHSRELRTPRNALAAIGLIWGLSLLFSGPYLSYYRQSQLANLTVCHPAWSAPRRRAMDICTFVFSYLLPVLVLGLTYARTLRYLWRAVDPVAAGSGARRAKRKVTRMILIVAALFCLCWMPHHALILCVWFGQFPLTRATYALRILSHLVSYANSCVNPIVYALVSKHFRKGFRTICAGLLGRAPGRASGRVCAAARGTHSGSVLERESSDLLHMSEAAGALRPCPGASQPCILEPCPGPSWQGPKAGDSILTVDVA

[9] = target: Induced myeloid leukemia cell differentiation protein Mcl-1 (Homo sapiens, UniProt Q07820); format: functional
Sequence of Induced myeloid leukemia cell differentiation protein Mcl-1 (Q07820 whole entry): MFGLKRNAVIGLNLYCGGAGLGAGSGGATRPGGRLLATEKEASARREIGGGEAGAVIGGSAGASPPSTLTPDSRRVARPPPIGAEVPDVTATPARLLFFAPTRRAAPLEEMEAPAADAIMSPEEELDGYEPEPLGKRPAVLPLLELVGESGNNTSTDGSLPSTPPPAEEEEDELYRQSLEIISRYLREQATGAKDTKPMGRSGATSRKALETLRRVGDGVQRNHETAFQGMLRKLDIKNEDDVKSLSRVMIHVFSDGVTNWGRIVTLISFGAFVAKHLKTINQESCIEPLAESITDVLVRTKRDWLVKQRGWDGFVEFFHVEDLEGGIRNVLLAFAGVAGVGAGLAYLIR

[10] = target: 5-hydroxytryptamine receptor 1A (Homo sapiens, UniProt P08908); format: functional
Sequence of 5-hydroxytryptamine receptor 1A (P08908 whole entry): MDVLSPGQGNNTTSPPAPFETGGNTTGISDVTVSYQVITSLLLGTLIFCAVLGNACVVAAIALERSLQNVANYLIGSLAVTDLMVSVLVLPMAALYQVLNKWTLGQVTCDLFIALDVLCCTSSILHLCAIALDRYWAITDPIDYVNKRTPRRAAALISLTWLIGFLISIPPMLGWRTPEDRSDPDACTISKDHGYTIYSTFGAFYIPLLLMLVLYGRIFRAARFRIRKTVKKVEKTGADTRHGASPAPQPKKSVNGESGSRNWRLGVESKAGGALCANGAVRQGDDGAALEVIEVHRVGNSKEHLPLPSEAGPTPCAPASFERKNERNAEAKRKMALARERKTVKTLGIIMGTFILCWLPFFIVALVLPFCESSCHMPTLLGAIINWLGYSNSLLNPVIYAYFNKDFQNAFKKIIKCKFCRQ

Sequence of Muscarinic acetylcholine receptor M1 (P08482 whole entry): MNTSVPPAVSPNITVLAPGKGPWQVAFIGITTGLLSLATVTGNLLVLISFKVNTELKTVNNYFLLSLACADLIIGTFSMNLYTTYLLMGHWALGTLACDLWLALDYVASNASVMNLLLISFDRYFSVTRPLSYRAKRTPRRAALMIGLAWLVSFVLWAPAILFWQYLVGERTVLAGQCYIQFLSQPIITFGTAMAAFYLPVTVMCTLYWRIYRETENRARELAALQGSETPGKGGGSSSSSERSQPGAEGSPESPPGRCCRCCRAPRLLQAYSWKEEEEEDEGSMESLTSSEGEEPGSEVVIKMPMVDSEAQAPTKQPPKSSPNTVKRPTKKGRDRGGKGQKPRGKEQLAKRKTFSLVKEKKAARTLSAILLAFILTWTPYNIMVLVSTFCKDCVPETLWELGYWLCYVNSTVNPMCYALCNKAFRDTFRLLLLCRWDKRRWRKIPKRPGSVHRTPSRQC

In the case of `Cn1cc(-c2ccc(CN3C(=O)C(=O)c4cccc(F)c43)c(F)c2)cn1`, the EC50 [1] was 2.32 µM (active).
For `CCN(CC)S(=O)(=O)c1cccc(N2C(=O)/C(=C\Nc3ccccc3C(=O)O)c3ccccc3C2=O)c1`, the IC50 [2] was > 40 µM (not active), the EC50 [3] was 13.7 µM (active) and the EC50 [4] was > 60 µM (not active). For the same compound, the AC50 (HEK293) was 0.167 µM (active) and the EC50 [5] was 0.21 µM (active).
With `O=C(Nc1ccc(S(=O)(=O)NCc2ccccc2)cc1)c1ccccc1[N+](=O)[O-]` the IC50 [6] was 5.1 µM (active).
With `Cc1ccc(S(=O)(=O)NCc2ccc(C(=O)NCCCN3CCC(Cc4ccccc4)CC3)cc2)cc1` the IC50 [7] was > 100 µM (active).
With `O=c1c(C(c2ccccn2)c2c(O)oc3ccccc3c2=O)c(O)oc2ccccc12` the IC50 [8] was 152 µM (active).
With `CCCOc1[nH]cnc2c3ccccc3nc1-2` the IC50 (Galanin receptor type 2) was > 42 µM (not active) and the IC50 [9] was 19.6 µM (not active).
For `Cc1[nH]c2c(Cl)cccc2c1CCN`, the EC50 [10] was > 50 µM (not active).
